The values that follow come from patent publication US10793521B2, “Crystalline form II of dextral oxiracetam, preparation method therefor and use thereof” (CHONGQING RUNZE PHARMACEUTICAL COMPANY LIMITED, priority 2016, dated 2020).

By solubility is commonly meant the concentration that dissolves in the medium under given conditions. Low readings indicate little dissolved substance, high ones much dissolved substance.

Holding throughout (type): physicochemical
Data set [1] is described as follows: Solubility in water.
The nature of data set [2]: Dynamic vapor sorption (DVS) test with powder X-ray diffraction characterization. The method, then:
The test parameters were given as follows: weighing: Ultra Digital Microbalance SMS Ultra Balance™; flow rate: N2, 200 sccm, System Control Software: DVS-Intrinsic control software ver. 1.0.3.1, Data Analysis Software: Isotherm (ISO) analysis suite. 22.4 mg of sample of crystalline form II of dextral oxiracetam was weighed for the test, dried at RH=0%, the mass was balanced to ensure removal of moisture adsorbed on the surface, then placed on metal sample tray, and dried at 0% RH for 2 h. The test was performed at a constant temperature of 25° C., and the relative humidity (RH %) was controlled to vary cyclically from 0% to 90% to 0% RH with a 10% gradient. The variation of the sample weight with humidity was measured, which was combined with powder X-ray diffraction characterization to observe the effect of humidity on crystalline form transformation of the sample.

Data set [3] can be described thus: Accelerated test for crystalline form stability. Conditions: 40° C.±2° C., relative humidity 75%±5%. On the procedure:
The accelerated test for crystalline form stability was performed in accordance with the provisions relating to the accelerated test of active pharmaceutical ingredients under “Guidelines for the Stability Test of Active Ingredient Pharmaceutical Ingredients and Pharmaceutical Preparations” of Pharmacopoeia 2010 Appendix XIXC. The crystalline form II of dextral oxiracetam was placed in a beaker and the test was carried out in a constant temperature and humidity chamber at a temperature of 40° C.±2° C. and a relative humidity of 75%±5%.

Entries after “also recorded” stand apart in the source; their conditions may differ.

Turning to `NC(=O)CN1C[C@H](O)CC1=O` [dextral oxiracetam], the solubility in data set [1] is at least 100 mg/mL. Further, in data set [2] (25° C., relative humidity cycled 0% to 90% to 0% RH with a 10% gradient), the “crystalline form of the sample after humidity cycle” value is given as “still the crystalline form II of dextral oxiracetam”. In addition, the “crystal transformation / stability to humidity” value in data set [2] (room temperature, relative humidity of 0-95%) was “do not undergo crystal transformation; also recorded: no crystal transformation occurs”. Also, the “change in crystalline form” value in data set [3] (after 2 h), in data set [3] (after 10 days) and in data set [3] (after 15 days) was “no change” each time. Moreover, the “crystal transformation in accelerated stability test” value in data set [3] (between 2 h and 15 d) was “did not undergo crystal transformation”.
